Series [1] deals with HDAC6. Also noted: method as in PMID 29304284. Conditions: printed in Figure 2, previously synthesised compound; cited from earlier work.
Series [2] concerns A549 cells. Nature of the series: Sulforhodamine B antiproliferative assay, A549. The format is cell-based. The conditions noted are these: Homo sapiens. The protocol: (§1) All human cancer cells were maintained in RPMI 1640 medium supplemented with 10% FBS and penicillin (100 units/ml)/streptomycin (100 µg/ml)/amphotericin B (0.25 µg/ml). All cells were maintained in humidified air containing 5% CO2 at 37 °C and cultured every 2–3 days. […]
(§2) Cells were seeded at the density of 5000 cells/well into 96-plate overnight. Basal cells were fixed with 10% trichloroacetic acid (TCA) to represent the cell population at the time of compound addition (T0). After additional incubation of DMSO (C) or different doses of test compounds (Tx) for 48 h, cells were fixed with 10% TCA and stained with SRB at 0.4% (w/v) in 1% AcOH. Unbound SRB was washed out using 1% AcOH and SRB bound cells were solubilised with 10 mM Trizma base. The absorbance was read at a wavelength of 515 nm. The 50% growth inhibition (GI50) was calculated by 100 − [(Tx – T0)/(C – T0)] × 100.

Another series concerns the target T1, HDAC2 (Homo sapiens, UniProt Q92769).
T1 construct: EurofinPanlabs (Taipei, Taiwan)
The series can be described thus: HDAC biochemical assay (Fluor-de-Lys), HDAC2. The conditions noted are these: for Selectivity ratio of HDAC2 over HDAC6: IC50 HDAC2 / IC50 HDAC6; for IC50: human recombinant HDAC2, dash = no inhibition or activity that could not be fitted to an IC50 curve.

Another series deals with T2, HDAC1 (Homo sapiens, UniProt Q13547).
T2 construct: EurofinPanlabs (Taipei, Taiwan)
T2 sequence (Q13547 whole entry): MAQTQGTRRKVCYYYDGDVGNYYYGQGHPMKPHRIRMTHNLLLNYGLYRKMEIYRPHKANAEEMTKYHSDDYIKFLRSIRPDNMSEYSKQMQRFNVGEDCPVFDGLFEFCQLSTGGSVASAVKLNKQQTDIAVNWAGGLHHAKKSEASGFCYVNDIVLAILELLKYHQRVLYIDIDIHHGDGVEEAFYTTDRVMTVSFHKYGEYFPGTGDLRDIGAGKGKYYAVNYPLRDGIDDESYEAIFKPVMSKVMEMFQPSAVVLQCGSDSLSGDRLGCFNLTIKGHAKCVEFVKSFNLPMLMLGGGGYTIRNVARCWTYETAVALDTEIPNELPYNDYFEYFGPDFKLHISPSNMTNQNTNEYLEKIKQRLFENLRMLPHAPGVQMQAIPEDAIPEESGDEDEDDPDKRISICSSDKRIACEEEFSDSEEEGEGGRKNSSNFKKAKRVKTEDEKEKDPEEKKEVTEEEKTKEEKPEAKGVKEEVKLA
Nature of the series: HDAC biochemical assay (Fluor-de-Lys), HDAC1. The conditions noted are these: for Selectivity ratio of HDAC1 over HDAC6: IC50 HDAC1 / IC50 HDAC6; for IC50: human recombinant HDAC1, values > 10 μM estimated from best curve fitting.

In series [3] the target is T3, HDAC6 (Homo sapiens, UniProt Q9UBN7).
T3 construct: EurofinPanlabs (Taipei, Taiwan)
T3 sequence (Q9UBN7 1-1215): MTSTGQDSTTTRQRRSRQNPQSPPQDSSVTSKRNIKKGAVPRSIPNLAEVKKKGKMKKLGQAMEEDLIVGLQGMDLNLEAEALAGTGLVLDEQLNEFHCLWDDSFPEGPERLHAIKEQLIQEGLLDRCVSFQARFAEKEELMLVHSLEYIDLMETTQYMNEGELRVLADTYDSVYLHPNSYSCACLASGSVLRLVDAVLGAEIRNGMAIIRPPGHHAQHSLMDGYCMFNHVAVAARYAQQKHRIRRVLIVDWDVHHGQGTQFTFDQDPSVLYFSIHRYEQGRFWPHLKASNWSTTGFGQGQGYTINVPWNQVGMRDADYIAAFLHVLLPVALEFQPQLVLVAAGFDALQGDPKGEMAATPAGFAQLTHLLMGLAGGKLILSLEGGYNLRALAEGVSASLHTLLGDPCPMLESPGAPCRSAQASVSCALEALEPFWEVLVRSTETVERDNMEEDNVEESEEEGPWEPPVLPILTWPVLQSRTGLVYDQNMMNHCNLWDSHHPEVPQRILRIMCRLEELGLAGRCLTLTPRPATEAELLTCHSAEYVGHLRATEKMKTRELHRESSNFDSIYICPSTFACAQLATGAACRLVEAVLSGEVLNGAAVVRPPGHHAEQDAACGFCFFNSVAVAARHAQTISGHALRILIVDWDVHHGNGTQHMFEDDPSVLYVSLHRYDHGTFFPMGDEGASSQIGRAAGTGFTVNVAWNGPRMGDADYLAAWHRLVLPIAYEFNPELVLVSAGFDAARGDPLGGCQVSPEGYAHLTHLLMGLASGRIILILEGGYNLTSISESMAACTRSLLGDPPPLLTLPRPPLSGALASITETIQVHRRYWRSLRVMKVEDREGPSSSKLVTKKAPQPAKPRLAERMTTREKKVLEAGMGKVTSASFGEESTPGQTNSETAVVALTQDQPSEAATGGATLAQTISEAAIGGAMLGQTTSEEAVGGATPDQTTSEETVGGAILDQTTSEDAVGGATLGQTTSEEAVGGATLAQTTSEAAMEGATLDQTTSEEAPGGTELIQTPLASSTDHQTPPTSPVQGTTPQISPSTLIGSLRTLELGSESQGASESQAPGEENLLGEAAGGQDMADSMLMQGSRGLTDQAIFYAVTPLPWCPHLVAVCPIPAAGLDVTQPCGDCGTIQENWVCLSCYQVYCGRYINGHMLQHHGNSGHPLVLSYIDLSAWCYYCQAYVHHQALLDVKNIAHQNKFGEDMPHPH
Nature of the series: HDAC biochemical assay (Fluor-de-Lys), HDAC6. Conditions: human recombinant HDAC6.

Another series has as its target T4, HDAC8 (Homo sapiens, UniProt Q9BY41).
T4 construct: EurofinPanlabs (Taipei, Taiwan)
T4 sequence (Q9BY41 1-377): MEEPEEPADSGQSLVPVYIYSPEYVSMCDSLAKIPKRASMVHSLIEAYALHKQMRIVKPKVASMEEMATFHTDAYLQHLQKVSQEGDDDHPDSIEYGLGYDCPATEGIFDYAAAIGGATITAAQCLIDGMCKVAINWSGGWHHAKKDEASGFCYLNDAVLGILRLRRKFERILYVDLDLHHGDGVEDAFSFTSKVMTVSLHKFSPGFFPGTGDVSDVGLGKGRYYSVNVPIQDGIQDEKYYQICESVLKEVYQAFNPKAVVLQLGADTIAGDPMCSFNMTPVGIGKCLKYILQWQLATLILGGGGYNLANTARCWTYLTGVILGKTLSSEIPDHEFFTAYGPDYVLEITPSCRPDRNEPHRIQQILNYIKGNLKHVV
Nature of the series: HDAC biochemical assay (Fluor-de-Lys), HDAC8. Conditions: for Selectivity ratio of HDAC8 over HDAC6: IC50 HDAC8 / IC50 HDAC6; for IC50: human recombinant HDAC8.

Series [4] relates to HCT116 cells. The series can be described thus: Sulforhodamine B antiproliferative assay, HCT116. The conditions noted are these: Homo sapiens, HCT-116, SRB, 48 h, values > 10 μM estimated from best curve fitting. Format: cell-based. The protocol: as §1, §2
For series [5], the system named is A549 cells. Nature of the series: Flow cytometry cell cycle analysis. Conditions: A549 cells, 0.25, 0.5, 10 μM, 48 h, propidium iodide. The format is cell-based, human. The protocol: Briefly, A549 cells were starved with EBM-2 medium overnight and were subsequently replenished with EGM-2 medium with or without 17, 25, and 26 (0.25, 0.5, 10 µM) for 48 h. After being trypsinized and fixed in ice-cold 75% MeOH for 1 h at −20 °C, A549 cells were washed with PBS and resuspended in 0.2 ml DNA extraction buffer (0.2 M Na2HPO4, 0.1 M citric acid; pH 7.8) for 30 min. Then the cells were stained with propidium iodide solution (PI; 100 µg/ml RNase, 80 µg/ml propidium iodide, 0.1% Triton X-100) in PBS. FACScan flow cytometry was utilised to determine cell cycle distribution, and data analysis was performed with CellQuest software (BD Biosciences).

In series [6] the test system is A549 cells. Nature of the series: Western blot analysis of apoptosis and DNA damage markers. The format is cell-based, human. The conditions noted are these: A549 cells treated for 48 h; 0.25, 5 and 10 µM. The protocol: buffer (20 mMTris-HCl pH 7.5, 150 mM NaCl, 1 mM Na2EDTA, 1 mM EGTA, 1% NP-40, 1% sodium deoxycholate, 0.1% SDS, 2.5 mM β-glycerylphosphate, 1 mM Na4P2O7, 5 mM NaF, 1 mM Na3VO4 and protease inhibitor cocktail from Millipore) on ice for 30 min following by centrifugation at 13000 rpm for 30 min. Protein concentrations were determined and equal amounts of protein were separated by 8–15% sodium dodecyl sulphate-polyacrylamide gel electrophoresis (SDS–PAGE) and transferred to poly(vinylidene difluoride) (PVDF) membranes. Membranes were immunoblotted with specific antibodies overnight at 4 °C and then applied to appropriate horseradish peroxidase-conjugated anti-mouse or anti-rabbit IgG secondary antibodies for 1 h at RT. Signals were detected using an enhanced chemiluminescence (Amersham, Buckinghamshire, UK).

The test system of series [7] is A549 cells. Also noted: method as in PMID 27344487. The conditions noted are these: reference compounds, read-out: Antiproliferative activity IC50, A549; cited from earlier work.
For series [8], the system named is HCT116 cells. Also noted: method as in PMID 27344487. Conditions: reference compounds, read-out: Antiproliferative activity IC50, HCT116; cited from earlier work.
Where [9] appears, read: A549 cells, SRB, 48 h, values > 10 μM estimated from best curve fitting, read-out: Antiproliferative activity IC50, A549.
Where [10] appears, read: range over both cell lines (A549 and HCT116) and both compounds, abstract, read-out: IC50 values against A549 and HCT116 cells.

SMILES strings stand for the structures. Read-outs that look alike come from different tables or passages of the source. A value given as a limit tells only on which side of the number the result lay.

T1 sequence (Q92769 whole entry): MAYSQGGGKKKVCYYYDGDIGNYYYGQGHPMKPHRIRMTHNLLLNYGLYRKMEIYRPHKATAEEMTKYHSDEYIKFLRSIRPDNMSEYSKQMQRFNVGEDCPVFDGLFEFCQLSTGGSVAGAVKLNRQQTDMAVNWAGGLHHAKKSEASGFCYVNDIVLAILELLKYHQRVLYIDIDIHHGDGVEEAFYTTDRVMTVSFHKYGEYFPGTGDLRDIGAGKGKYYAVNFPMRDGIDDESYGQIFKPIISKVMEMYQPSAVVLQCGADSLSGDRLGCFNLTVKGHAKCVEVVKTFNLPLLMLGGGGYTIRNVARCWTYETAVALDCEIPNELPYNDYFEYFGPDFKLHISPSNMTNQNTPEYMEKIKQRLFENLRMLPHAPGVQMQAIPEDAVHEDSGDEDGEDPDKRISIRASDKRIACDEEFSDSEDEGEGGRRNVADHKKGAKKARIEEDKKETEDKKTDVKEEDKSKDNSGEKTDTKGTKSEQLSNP

Turning to `O=C(NO)c1ccc(CNc2cccc3cccnc23)cc1` [Compound 13, N-hydroxy-4-((quinolin-8-ylamino)methyl)benzamide], the 50% inhibitory concentration (IC50) in the series with HDAC6 [1] is 0.00029 µM.

For `O=C(NO)c1ccc(CNc2cccc3cc(-c4ccccc4)cnc23)cc1` [Compound 18, N-Hydroxy-4-[(3-phenyl-quinolin-8-ylamino)-methyl]-benzamide], the melting point was 172.7 to 173.2 °C. In addition, the 50% inhibitory concentration (IC50) in the series with A549 cells [2] (setting [9]) is 4.97 ± 0.06 µM. Further, on HDAC2, the “Selectivity ratio of HDAC2 over HDAC6” value was “(> 515)” and the IC50 was greater than 10 µM. On HDAC1, the “Selectivity ratio of HDAC1 over HDAC6” value was “(273)” and the IC50 was 5.3 µM. Moreover, at HDAC6 [3], the IC50 amounted to 0.0194 µM. Further, on HDAC8, the “Selectivity ratio of HDAC8 over HDAC6” value is reported as “(355)” and the IC50 worked out at 6.88 µM. The half-maximal inhibitory concentration (IC50) with HCT116 cells [4] is 4.7 ± 0.38 µM.

For the compound `O=C(NO)c1ccc(CNc2cccc3cc(-c4cccnc4)cnc23)cc1` [Compound 25, N-Hydroxy-4-(((3-(pyridin-3-yl)quinolin-8-yl)amino)methyl)benzamide], the concentration for half-maximal inhibition (IC50) in the series on A549 cells [2] (setting [9]) was 1.29 ± 0.41 µM; with A549 cells [2] (setting [10]), 1.29 to 2.13 µM; on HDAC2 it was 1.31 µM; at HDAC1, 2.62 µM; at HDAC6 [3], 0.00475 µM; on HDAC8, 1.8 µM. The IC50 with HCT116 cells [4] is 1.61 ± 0.22 µM. For the same compound, in the series on A549 cells [5], the “Cell cycle distribution, sub G1 population” value is reported as “concentration dependent accumulation of A549 cells in sub G1 phase”. Further, the “Selectivity ratio of HDAC2 over HDAC6” value at HDAC2 is recorded as “(276)”. The “Selectivity ratio of HDAC1 over HDAC6” value on HDAC1 was “(552)”. In addition, the “Selectivity ratio of HDAC8 over HDAC6” value at HDAC8 was “(379)”. Moreover, in the series with A549 cells [6], the “Caspase 3, 8, and 9 cleavage (Western blot)” value was “dose dependent increases in caspase 3, 8, and 9 cleavage”.

In the case of `O=C(NO)c1ccc(CNc2cccc3cc(-c4ccncc4)cnc23)cc1` [Compound 26, N-Hydroxy-4-(((3-(pyridin-4-yl)quinolin-8-yl)amino)methyl)benzamide], the IC50 is 2.13 ± 0.13 µM with A549 cells [2] (setting [9]); 1.29 to 2.13 µM with A549 cells [2] (setting [10]); 2.89 µM at HDAC2; 5.13 µM at HDAC1; 0.00861 µM on HDAC6 [3]; 2.35 µM at HDAC8. Also, the IC50 with HCT116 cells [4] is 2.03 ± 0.46 µM. Moreover, the “Cell cycle distribution, sub G1 population” value with A549 cells [5] was “concentration dependent accumulation of A549 cells in sub G1 phase”. For the same compound, the “Selectivity ratio of HDAC2 over HDAC6” value at HDAC2 is “(336)”. The “Selectivity ratio of HDAC1 over HDAC6” value at HDAC1 is reported as “(596)”. In addition, the “Selectivity ratio of HDAC8 over HDAC6” value at HDAC8 is “(273)”. Moreover, the “Caspase 3, 8, and 9 cleavage (Western blot)” value in the series with A549 cells [6] was “dose dependent increases in caspase 3, 8, and 9 cleavage”.

On to `O=C(/C=C/c1cccc(S(=O)(=O)Nc2ccccc2)c1)NO` [PXD101, (E)-N-hydroxy-3–(3-(N-phenylsulfamoyl)phenyl)acrylamide], for which the half-maximal inhibitory concentration (IC50) is 0.78 ± 0.07 µM in the series with A549 cells [7] and 0.13 ± 0.01 µM in the series on HCT116 cells [8].

Consider `O=C(CCCCCCC(=O)Nc1ccccc1)NO` [SAHA, N^1-hydroxy-N^8-phenyloctanediamide], for which the IC50 in the series on A549 cells [7] is 1.02 ± 0.15 µM.

The record behind these values is PMC7655065, “Effect of 3-subsitution of quinolinehydroxamic acids on selectivity of histone deacetylase isoforms” (Journal of Enzyme Inhibition and Medicinal Chemistry, 2020).
